Test results as given in US11008622B2, “Biomarker for predicting sensitivity to EGFR-targeting agent, and use thereof” (THE ASAN FOUNDATION, priority 2014, dated 2021).

Assays:
FZD4 and GPR101 genes = experiment: Real-time PCR of EGFR transactivation-related genes after RON inhibition; type: cell-based, human; settings: KM12C, RON siRNA 48 hours; FIG. 1E
Description: In order to perform the RT-PCR, Colo320HSR colon cancer cell line in which the RON was non-expressed was transfected with construct expressing the RONΔ160 as the RON active type form for 48 hours and KM12C colon cancer cell line in which the RON was activated was transfected with the RON siRNA for 48 hours. The RNA was extracted by using trizol (Cat.#15596-026, Life Technologies™), respectively. The extracted RNA was synthesized to cDNA by using a RT-PCR Kit (AccuPower RT PreMix, Bioneer). The difference in expression of the corresponding gene was verified by PCR (AccuPower PCRPreMix, Bioneer) by using the synthesized cDNA and a gene-specific primer and quantified by using a real-time PCR (LightCycler 480 SYBR Green, Roche).
The inventors analyzed the expression of the genes Adam11, Adam32, FZD4, GPER, and GPR101 associated with the EGFR transactivation with real-time PCR after artificially suppressing the RON activity by using an siRNA technique in the KM12C colon cancer cell line in which the RON was activated, in order to analyze the change aspect of the expression of the EGFR transactivation-related genes according to the RON inhibition.

EGFR = EGFR phosphorylation by western blot after RON inhibition by siRNA; type: cell-based, human
Description: In order to perform the western blot, a protein separated from each cell was separated through SDS-PAGE and transferred to polyscreen membranes (New England Nuclear, Boston, Mass., USA), reacted for 12 hours at 4° C. by using various antibodies (anti-phospho RON (MyBioSource, San Diego, Calif., USA), anti-phospho Tyrosine, anti-EGFR, anti-phospho EGFR (Cell signaling Technology, Beverly, Mass., USA), anti-RON, and anti-r-tubulin (Santa Cruz Biotechnology), and then washed with a 1×TBS-T buffer solution for 10 minutes three times. A suitable anti-rabbit-HRP or anti-mouse-HRP secondary antibody reacted for 2 hours at room temperature and was washed with the 1×TB S-T buffer solution for 10 minutes three times to verify the expression of the protein by using an ECL solution (Amersham, Buckinghamshire, UK).
The inventors verified the phosphorylation induction of the EGFR by performing the western blot, after artificially suppressing the RON by using a siRNA technique in the KM12C and HT29 colon cancer cell lines in which the RON was expressed and activated, in order to verify the change in activity of the EGFR protein by the activation of the RON protein. […]

5′-ACUUUGUAGAGGAGUUUGAUU-3′ (listed as RNA, chemistry not given here) [RON siRNA]
FZD4 gene expression (FZD4 and GPR101 genes): significantly reduced | GPR101 gene expression (FZD4 and GPR101 genes): significantly reduced | activity of the EGFR (phosphorylation) (EGFR; KM12C and HT29 colon cancer cell lines, FIG. 2B): decreased | phosphorylation of the EGFR induced by the EGF (EGFR; KM12C, by EGF ligand treating time, FIG. 2C): decreased
